Assay results: ChEMBL document CHEMBL5705893, “Targeting the mitotic checkpoint for cancer therapy with NMS-P715, an inhibitor of MPS1 kinase” (Cancer Res, 2010)
Each block holds one molecule with its values, some of them ahead of it.

How the values were obtained:
[1] = target: T1, Dual specificity protein kinase TTK (Homo sapiens, UniProt P33981); assay: Inhibition of MPS1 in human taxol-arrested U2OS cells assessed as effect on histone H3 phosphorylation at ser10 residue incubated for 2 hrs by arrayscan analysis; assay type: cell-based
T1 sequence (P33981 whole entry): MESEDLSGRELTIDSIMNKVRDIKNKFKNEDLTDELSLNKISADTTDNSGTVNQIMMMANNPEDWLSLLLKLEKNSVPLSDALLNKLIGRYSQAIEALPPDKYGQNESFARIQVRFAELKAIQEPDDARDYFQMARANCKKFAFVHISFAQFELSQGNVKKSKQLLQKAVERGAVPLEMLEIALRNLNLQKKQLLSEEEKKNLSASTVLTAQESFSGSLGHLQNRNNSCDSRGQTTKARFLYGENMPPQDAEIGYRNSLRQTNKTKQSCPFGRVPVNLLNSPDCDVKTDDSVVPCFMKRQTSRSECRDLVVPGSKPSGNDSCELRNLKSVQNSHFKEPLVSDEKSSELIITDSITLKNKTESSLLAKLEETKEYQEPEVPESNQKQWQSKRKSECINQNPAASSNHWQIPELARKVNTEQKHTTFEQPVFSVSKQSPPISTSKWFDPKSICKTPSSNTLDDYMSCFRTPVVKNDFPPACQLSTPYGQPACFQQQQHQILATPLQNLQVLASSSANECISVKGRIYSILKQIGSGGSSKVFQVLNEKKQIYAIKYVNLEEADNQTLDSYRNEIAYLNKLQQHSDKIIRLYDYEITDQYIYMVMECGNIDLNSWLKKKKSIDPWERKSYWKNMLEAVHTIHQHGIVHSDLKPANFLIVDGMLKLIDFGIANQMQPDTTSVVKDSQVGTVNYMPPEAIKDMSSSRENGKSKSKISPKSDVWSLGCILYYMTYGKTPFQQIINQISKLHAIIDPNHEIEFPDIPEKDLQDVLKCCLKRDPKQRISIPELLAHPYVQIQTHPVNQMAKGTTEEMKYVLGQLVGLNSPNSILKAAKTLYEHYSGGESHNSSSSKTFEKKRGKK

[2] = target: Activated CDC42 kinase 1 (Homo sapiens, UniProt Q07912); assay: Inhibition of recombinant ACK1 (unknown origin)
[3] = target: Eukaryotic elongation factor 2 kinase (Homo sapiens, UniProt O00418); assay: Inhibition of recombinant EEF2K (unknown origin)
[4] = target: Mast/stem cell growth factor receptor Kit (Homo sapiens, UniProt P10721); assay: Inhibition of recombinant KIT (unknown origin)
[5] = target: Serine/threonine-protein kinase Nek6 (Homo sapiens, UniProt Q9HC98); assay: Inhibition of recombinant NEK6 (unknown origin)
[6] = target: Tyrosine-protein kinase JAK3 (Homo sapiens, UniProt P52333); assay: Inhibition of recombinant JAK3 (unknown origin)
[7] = target: RAC-alpha serine/threonine-protein kinase (Homo sapiens, UniProt P31749); assay: Inhibition of recombinant AKT1 (unknown origin)
[8] = target: Serine/threonine-protein kinase NIM1 (Homo sapiens, UniProt Q8IY84); assay: Inhibition of recombinant NIM1 (unknown origin)
[9] = target: MAP kinase-activated protein kinase 2 (Homo sapiens, UniProt P49137); assay: Inhibition of recombinant MAPKAPK2 (unknown origin)
[10] = target: Insulin receptor (Homo sapiens, UniProt P06213); assay: Inhibition of recombinant IR (unknown origin)
[11] = target: ALK tyrosine kinase receptor (Homo sapiens, UniProt Q9UM73); assay: Inhibition of recombinant ALK (unknown origin)
[12] = target: Receptor-type tyrosine-protein kinase FLT3 (Homo sapiens, UniProt P36888); assay: Inhibition of recombinant FLT3 (unknown origin)
[13] = Inhibition of recombinant SULU1 (unknown origin); parameters: species or system Homo sapiens
[14] = target: Tyrosine-protein kinase JAK1 (Homo sapiens, UniProt P23458); assay: Inhibition of recombinant JAK1 (unknown origin)
[15] = Inhibition of recombinant PDGFR (unknown origin); parameters: species or system Homo sapiens
[16] = target: High affinity nerve growth factor receptor (Homo sapiens, UniProt P04629); assay: Inhibition of recombinant TRKA (unknown origin)
[17] = target: Focal adhesion kinase 1 (Homo sapiens, UniProt Q05397); assay: Inhibition of recombinant FAK (unknown origin)
[18] = target: Inhibitor of nuclear factor kappa-B kinase subunit beta (Homo sapiens, UniProt O14920); assay: Inhibition of recombinant IKK2 (unknown origin)
[19] = target: Serine/threonine-protein kinase PLK1 (Homo sapiens, UniProt P53350); assay: Inhibition of recombinant PLK1 (unknown origin)
[20] = target: Eukaryotic translation initiation factor 2-alpha kinase 3 (Homo sapiens, UniProt Q9NZJ5); assay: Inhibition of recombinant PERK (unknown origin)
[21] = target: Maternal embryonic leucine zipper kinase (Homo sapiens, UniProt Q14680); assay: Inhibition of recombinant MELK (unknown origin)
[22] = target: Tyrosine-protein kinase Lck (Homo sapiens, UniProt P06239); assay: Inhibition of recombinant LCK (unknown origin)
[23] = target: Protein-tyrosine kinase 6 (Homo sapiens, UniProt Q13882); assay: Inhibition of recombinant BRK (unknown origin)
[24] = Inhibition of recombinant AUR1 (unknown origin); parameters: species or system Homo sapiens
[25] = target: Mitogen-activated protein kinase 1 (Homo sapiens, UniProt P28482); assay: Inhibition of recombinant ERK2 (unknown origin)
[26] = target: Serine/threonine-protein kinase Chk1 (Homo sapiens, UniProt O14757); assay: Inhibition of recombinant CHK1 (unknown origin)
[27] = target: Casein kinase 2 (Homo sapiens, UniProt P67870+P68400+P19784+Q8NEV1); assay: Inhibition of recombinant CK2 (unknown origin); assay type: protein assay
[28] = target: Serine/threonine-protein kinase pim-1 (Homo sapiens, UniProt P11309); assay: Inhibition of recombinant PIM1 (unknown origin)
[29] = target: Proto-oncogene tyrosine-protein kinase receptor Ret (Homo sapiens, UniProt P07949); assay: Inhibition of recombinant RET (unknown origin)
[30] = target: Protein kinase C beta type (Homo sapiens, UniProt P05771); assay: Inhibition of recombinant PKCbeta (unknown origin)
[31] = Inhibition of recombinant ABL (unknown origin); parameters: species or system Homo sapiens
[32] = target: Mitotic checkpoint serine/threonine-protein kinase BUB1 (Homo sapiens, UniProt O43683); assay: Inhibition of recombinant BUB1 (unknown origin)
[33] = target: Tyrosine-protein kinase ZAP-70 (Homo sapiens, UniProt P43403); assay: Inhibition of recombinant ZAP70 (unknown origin)
[34] = target: CDC7/DBF4 (Cell division cycle 7-related protein kinase/Activator of S phase kinase) (Homo sapiens, UniProt O00311); assay: Inhibition of recombinant CDC7/DBF4 (unknown origin); assay type: protein-complex assay
[35] = target: Vascular endothelial growth factor receptor 2 (Homo sapiens, UniProt P35968); assay: Inhibition of recombinant VEGFR2 (unknown origin)
[36] = target: T1, Dual specificity protein kinase TTK; assay: Inhibition of recombinant MPS1 (unknown origin)
[37] = target: Serine/threonine-protein kinase haspin (Homo sapiens, UniProt Q8TF76); assay: Inhibition of recombinant Haspin (unknown origin)
[38] = target: Serine/threonine-protein kinase pim-2 (Homo sapiens, UniProt Q9P1W9); assay: Inhibition of recombinant PIM2 (unknown origin)
[39] = target: Serine/threonine-protein kinase PAK 4 (Homo sapiens, UniProt O96013); assay: Inhibition of recombinant PAK4 (unknown origin)
[40] = Inhibition of recombinant AUR2 (unknown origin); parameters: species or system Homo sapiens
[41] = target: Non-receptor tyrosine-protein kinase TYK2 (Homo sapiens, UniProt P29597); assay: Inhibition of recombinant TYK 2 (unknown origin)
[42] = target: Tyrosine-protein kinase Lyn (Homo sapiens, UniProt P07948); assay: Inhibition of recombinant LYN (unknown origin)
[43] = target: Glycogen synthase kinase-3 beta (Homo sapiens, UniProt P49841); assay: Inhibition of recombinant GSK3beta (unknown origin)
[44] = target: Fibroblast growth factor receptor 1 (Homo sapiens, UniProt P11362); assay: Inhibition of recombinant FGFR1 (unknown origin)
[45] = target: Serine/threonine-protein kinase 26 (Homo sapiens, UniProt Q9P289); assay: Inhibition of recombinant MST4 (unknown origin)
[46] = target: Vascular endothelial growth factor receptor 3 (Homo sapiens, UniProt P35916); assay: Inhibition of recombinant VEGFR3 (unknown origin)
Vascular endothelial growth factor receptor 3, sequence (P35916 whole entry): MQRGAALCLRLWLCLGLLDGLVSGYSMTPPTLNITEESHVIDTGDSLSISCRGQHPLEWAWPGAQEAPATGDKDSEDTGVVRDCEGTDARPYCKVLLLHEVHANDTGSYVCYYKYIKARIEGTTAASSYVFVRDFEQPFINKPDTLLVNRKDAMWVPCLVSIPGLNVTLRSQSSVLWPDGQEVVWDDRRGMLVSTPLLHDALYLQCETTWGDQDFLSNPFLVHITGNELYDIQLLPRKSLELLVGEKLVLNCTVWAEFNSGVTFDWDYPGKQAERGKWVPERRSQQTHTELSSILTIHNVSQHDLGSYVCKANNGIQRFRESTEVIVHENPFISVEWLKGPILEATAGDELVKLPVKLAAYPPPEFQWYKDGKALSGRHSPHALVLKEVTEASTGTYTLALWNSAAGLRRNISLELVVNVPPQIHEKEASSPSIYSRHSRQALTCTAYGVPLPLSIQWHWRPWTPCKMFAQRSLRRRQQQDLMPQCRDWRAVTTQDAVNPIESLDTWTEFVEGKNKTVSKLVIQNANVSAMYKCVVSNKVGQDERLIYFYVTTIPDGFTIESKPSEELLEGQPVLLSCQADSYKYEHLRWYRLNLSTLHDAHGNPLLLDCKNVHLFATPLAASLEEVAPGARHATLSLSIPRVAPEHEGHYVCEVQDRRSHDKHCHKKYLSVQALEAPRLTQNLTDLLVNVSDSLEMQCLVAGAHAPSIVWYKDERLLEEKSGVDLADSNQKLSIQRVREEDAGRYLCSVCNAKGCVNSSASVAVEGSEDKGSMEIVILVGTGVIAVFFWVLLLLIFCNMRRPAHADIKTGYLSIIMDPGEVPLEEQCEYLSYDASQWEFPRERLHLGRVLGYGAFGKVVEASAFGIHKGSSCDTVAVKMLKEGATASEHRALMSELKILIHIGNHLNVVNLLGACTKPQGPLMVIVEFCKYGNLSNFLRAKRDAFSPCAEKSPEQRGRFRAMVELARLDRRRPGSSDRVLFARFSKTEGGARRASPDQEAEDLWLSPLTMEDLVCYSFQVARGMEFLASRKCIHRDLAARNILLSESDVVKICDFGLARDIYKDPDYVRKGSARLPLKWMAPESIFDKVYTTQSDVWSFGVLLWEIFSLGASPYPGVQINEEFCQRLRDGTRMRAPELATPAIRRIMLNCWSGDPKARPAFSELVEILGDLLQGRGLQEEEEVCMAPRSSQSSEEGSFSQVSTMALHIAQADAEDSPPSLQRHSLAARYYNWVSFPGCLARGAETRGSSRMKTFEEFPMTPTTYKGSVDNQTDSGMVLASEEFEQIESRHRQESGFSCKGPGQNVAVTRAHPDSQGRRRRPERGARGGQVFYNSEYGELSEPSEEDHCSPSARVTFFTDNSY

Serine/threonine-protein kinase pim-1, sequence (P11309 whole entry): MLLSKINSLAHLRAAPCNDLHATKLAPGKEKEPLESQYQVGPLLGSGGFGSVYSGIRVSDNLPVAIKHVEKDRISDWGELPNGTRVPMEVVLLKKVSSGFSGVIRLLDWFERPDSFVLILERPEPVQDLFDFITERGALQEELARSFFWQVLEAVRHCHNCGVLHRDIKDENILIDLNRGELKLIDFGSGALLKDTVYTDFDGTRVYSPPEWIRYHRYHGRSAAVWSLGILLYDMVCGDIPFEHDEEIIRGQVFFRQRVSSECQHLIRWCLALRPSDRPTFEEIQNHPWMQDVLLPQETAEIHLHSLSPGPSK
Inhibitor of nuclear factor kappa-B kinase subunit beta, sequence (O14920 whole entry): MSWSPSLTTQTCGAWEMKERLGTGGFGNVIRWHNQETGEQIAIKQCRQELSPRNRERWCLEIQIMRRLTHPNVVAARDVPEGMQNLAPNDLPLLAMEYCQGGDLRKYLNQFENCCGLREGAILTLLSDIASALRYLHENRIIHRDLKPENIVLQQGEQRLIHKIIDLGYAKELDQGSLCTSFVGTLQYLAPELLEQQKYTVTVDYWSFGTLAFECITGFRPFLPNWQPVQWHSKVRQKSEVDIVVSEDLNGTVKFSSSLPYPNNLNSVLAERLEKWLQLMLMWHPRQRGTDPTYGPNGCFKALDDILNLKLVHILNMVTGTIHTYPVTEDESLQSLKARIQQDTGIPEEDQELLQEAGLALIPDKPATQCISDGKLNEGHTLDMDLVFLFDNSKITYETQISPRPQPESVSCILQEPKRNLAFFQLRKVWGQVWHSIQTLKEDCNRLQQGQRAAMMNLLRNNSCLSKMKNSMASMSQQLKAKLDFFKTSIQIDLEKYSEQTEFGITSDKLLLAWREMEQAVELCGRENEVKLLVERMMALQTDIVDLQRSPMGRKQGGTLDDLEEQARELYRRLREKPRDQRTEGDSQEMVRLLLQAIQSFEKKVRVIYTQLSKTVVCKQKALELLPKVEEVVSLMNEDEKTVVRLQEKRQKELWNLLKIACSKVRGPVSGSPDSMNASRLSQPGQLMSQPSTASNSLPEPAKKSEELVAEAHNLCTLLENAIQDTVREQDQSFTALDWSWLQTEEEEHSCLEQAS
Serine/threonine-protein kinase PAK 4, sequence (O96013 whole entry): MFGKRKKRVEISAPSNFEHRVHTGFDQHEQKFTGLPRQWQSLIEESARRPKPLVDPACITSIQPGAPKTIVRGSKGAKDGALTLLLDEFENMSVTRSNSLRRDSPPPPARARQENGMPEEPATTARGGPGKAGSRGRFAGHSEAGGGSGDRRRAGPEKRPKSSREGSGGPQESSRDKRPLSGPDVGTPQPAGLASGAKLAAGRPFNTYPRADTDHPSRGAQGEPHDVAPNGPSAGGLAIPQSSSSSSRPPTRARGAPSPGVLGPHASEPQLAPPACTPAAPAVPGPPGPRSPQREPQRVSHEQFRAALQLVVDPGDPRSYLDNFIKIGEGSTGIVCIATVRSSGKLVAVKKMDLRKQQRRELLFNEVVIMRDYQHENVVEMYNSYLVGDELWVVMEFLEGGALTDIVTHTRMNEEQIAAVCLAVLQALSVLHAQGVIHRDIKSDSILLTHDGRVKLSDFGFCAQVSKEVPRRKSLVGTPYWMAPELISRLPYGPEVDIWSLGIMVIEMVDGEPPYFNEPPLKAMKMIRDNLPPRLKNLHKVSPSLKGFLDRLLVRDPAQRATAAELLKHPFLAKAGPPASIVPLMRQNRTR
Serine/threonine-protein kinase pim-2, sequence (Q9P1W9 whole entry): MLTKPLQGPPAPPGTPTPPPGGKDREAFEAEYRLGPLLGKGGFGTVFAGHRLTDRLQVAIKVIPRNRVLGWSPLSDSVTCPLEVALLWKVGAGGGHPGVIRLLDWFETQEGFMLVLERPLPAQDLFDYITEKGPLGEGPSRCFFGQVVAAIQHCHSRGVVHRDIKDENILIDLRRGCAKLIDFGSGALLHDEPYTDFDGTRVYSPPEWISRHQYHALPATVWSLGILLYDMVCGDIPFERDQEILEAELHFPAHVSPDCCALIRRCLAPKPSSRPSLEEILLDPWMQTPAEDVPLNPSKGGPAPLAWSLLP
Maternal embryonic leucine zipper kinase, sequence (Q14680 whole entry): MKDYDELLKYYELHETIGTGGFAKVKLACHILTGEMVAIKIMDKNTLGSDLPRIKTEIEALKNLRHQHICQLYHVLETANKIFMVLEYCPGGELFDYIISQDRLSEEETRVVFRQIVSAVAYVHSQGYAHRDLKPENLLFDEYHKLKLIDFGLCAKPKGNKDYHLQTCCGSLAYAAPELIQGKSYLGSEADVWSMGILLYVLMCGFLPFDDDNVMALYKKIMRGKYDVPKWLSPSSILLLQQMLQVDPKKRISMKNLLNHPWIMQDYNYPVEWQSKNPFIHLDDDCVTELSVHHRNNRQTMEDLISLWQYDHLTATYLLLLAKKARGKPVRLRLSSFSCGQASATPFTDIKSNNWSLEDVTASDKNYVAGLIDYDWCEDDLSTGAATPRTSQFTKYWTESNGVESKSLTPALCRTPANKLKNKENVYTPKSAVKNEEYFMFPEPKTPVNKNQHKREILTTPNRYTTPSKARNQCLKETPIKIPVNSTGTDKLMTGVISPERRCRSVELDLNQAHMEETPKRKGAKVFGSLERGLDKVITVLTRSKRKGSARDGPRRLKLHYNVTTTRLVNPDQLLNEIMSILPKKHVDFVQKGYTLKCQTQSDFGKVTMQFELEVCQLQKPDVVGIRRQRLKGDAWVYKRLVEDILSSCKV
Mast/stem cell growth factor receptor Kit, sequence (P10721 whole entry): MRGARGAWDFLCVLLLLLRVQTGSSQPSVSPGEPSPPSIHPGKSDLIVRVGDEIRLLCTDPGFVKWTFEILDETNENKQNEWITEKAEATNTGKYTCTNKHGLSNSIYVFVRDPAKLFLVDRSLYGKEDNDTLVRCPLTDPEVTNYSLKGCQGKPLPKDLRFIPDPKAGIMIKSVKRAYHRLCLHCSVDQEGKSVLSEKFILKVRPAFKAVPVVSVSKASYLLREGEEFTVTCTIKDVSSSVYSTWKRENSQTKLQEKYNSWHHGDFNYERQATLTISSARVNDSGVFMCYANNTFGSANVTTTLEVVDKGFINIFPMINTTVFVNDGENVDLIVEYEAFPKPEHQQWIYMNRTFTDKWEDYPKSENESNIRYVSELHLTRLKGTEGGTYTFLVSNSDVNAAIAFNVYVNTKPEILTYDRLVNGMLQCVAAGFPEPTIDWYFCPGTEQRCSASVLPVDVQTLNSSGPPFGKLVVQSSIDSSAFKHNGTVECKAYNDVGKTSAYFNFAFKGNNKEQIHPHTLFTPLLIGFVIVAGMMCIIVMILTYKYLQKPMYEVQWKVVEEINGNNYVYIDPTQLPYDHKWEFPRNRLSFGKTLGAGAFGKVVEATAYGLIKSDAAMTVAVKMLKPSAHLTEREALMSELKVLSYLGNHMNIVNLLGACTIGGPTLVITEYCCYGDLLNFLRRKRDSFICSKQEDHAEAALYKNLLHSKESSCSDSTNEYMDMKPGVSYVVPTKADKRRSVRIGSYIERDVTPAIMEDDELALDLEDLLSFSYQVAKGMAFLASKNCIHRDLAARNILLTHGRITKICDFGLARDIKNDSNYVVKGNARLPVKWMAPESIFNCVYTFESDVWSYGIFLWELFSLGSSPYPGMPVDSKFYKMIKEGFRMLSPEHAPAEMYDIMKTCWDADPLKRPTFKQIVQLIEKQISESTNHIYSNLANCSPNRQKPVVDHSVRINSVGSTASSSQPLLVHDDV

EC50 ([1]; u2os): 2280 nM
Structure (SMILES): COc1cc2c(Nc3ccc(NC(=O)c4ccccc4)cc3)ncnc2cc1OCCCN1CCOCC1

EC50 ([1]; u2os): 1990 nM
Structure (SMILES): Cn1c2ccccc2c2c3c(c4c5ccccc5n(CCC#N)c4c21)CNC3=O [GO-6976]

IC50 [2]: 2290 nM
IC50 [3]: > 10000 nM
IC50 [4]: 870 nM
IC50 [5]: > 10000 nM
IC50 [6]: 410 nM
IC50 [7]: > 10000 nM
IC50 [8]: > 10000 nM
IC50 [9]: > 10000 nM
IC50 [10]: 4010 nM
IC50 [11]: > 10000 nM
EC50 [1]: 8980 nM
IC50 [12]: 90 nM
IC50 [13]: > 10000 nM
IC50 [14]: 4650 nM
IC50 [15]: > 10000 nM
IC50 [16]: 70 nM
IC50 [17]: 3860 nM
IC50 [18]: 1020 nM
IC50 [19]: > 10000 nM
IC50 [20]: > 10000 nM
IC50 [21]: 110 nM
IC50 [22]: > 10000 nM
IC50 [23]: > 10000 nM
IC50 [24]: 60 nM
IC50 [25]: > 10000 nM
IC50 [26]: > 10000 nM
IC50 [27]: 650 nM
IC50 [28]: 3280 nM
IC50 [29]: 1090 nM
IC50 [30]: > 10000 nM
IC50 [31]: > 10000 nM
IC50 [32]: > 10000 nM
IC50 [33]: > 10000 nM
IC50 [34]: 1590 nM
IC50 [35]: 2930 nM
IC50 [36]: 1950 nM
IC50 [37]: 510 nM
IC50 [38]: 1050 nM
IC50 [39]: > 10000 nM
IC50 [40]: 190 nM
IC50 [41]: 880 nM
IC50 [42]: > 10000 nM
IC50 [43]: > 10000 nM
IC50 [44]: 2400 nM
IC50 [45]: > 10000 nM
IC50 [46]: 300 nM
Structure (SMILES): O=C1c2ccccc2-c2n[nH]c3cccc1c23
